Source: patent US7534913B2, “Crystalline form of nateglinide” (Teva Pharmaceutica Industries Ltd., priority 2002, dated 2009)

Assays:
[1] = by DSC, according to U.S. Pat. No. 5,463,116; cited from earlier work
[2] = Thermal stability: transformation of crystalline forms on drying or heating, form by XRPD; type: physicochemical; conditions: for form obtained upon drying / heating: generally about 40° C. to about 80° C.
Protocol: The various crystalline forms are related to each other in that drying of one form may result in a transformation to another form, namely nateglinide Forms A, B, D, E, F, G, H, I, J, K, L, M, N, Q, S, T, V, Z, α, β, δ,γ, ε, θ and Ω. The drying is carried out by heating a sample under ambient or reduced pressure. Generally, a preferred temperature is from about 40° C. to about 80° C., more preferably under reduced pressure. […] The term “stable” as used herein refers to a polymorphic change of less than about 5% by weight, more preferably less than about 2%, particularly for Form δ.
Form γ may also be prepared by heating Form J containing seeds of Form γ under similar conditions.
• X-Ray diffraction was performed on X-Ray powder diffractometer, Scintag®, variable goniometer, Cu-tube, solid state detector. Sample holder: A round standard aluminum sample holder with round zero background quartz plate. • The sample was put on the sample holder and immediately analyzed as is. Scanning parameters: Range: 2-40 deg 2θ, Continuos Scan, Rate: 3 deg./min. DSC: • DSC821^e Mettler Toledo®, Sample weight: 3-5 mg, Heating rate: 10° C./min, Number of holes in the crucible: 3 TGA: • Mettler TG50®, Sample weight: 7-15 mg, Heating rate: 10° C./min FTIR: • Perkin-Elmer®, Spectrum One FTIR spectrometer, Range: 4000-400 cm-1, no. of scans: 16, resolution: 4.0 cm-1, DRIFT technique.
Nateglinide Form delta (10 grams), with about 3% heptane (wt/wt), was dried in a fluidized bed drier for 4 hours at 60° C.
Sample of nateglinide form U (˜1 g) was introduced into a 6-gram vial and heated over 8.5 h in a 100° C. oil bath. The vial were extracted from the bath.
Sample of nateglinide form U (˜0.5 g) was heated to 120° C. for 1 h in an atmospheric pressure.
Sample of nateglinide form δ (˜0.5 g) was heated to 120° C. for 1 h in an atmospheric pressure.
The product of example 11 was dried at 50° C. in a vacuum oven overnight, and analyzed by XRD.
Nateglinide (40 grams) Form delta (1.5% heptane) was dried in a stirred reactor (7-10 rpm) under 60 mmHg vacuum and at 60° C.

[3] = heating under ambient or reduced pressure

For `CC(C)[C@H]1CC[C@H](C(=O)N[C@H](Cc2ccccc2)C(=O)O)CC1` [Form B, nateglinide], the “stability of crystals during grinding” value [1] is listed as “unstable and susceptible to change during grinding”.
For `CC(C)[C@H]1CC[C@H](C(=O)N[C@H](Cc2ccccc2)C(=O)O)CC1` [Form Ω, nateglinide], the “form by XRD after drying in a vacuum oven” value ([2]; wet sample, 50° C., vacuum oven, overnight) was “mixture of Form omega and Form Z”.
In the case of `CC(C)[C@H]1CC[C@H](C(=O)N[C@H](Cc2ccccc2)C(=O)O)CC1` [acetonitrile solvate of Form Epsilon, nateglinide], the “form obtained upon drying / heating” value [2, 3] is reported as “Form B”.
In the case of `CC(C)[C@H]1CC[C@H](C(=O)N[C@H](Cc2ccccc2)C(=O)O)CC1` [delta], the “polymorph after drying in a stirred reactor” value ([2]; 60 mmHg vacuum, 60° C., 6 hours, 7-10 rpm, starting with 1.5% heptane) is reported as “remained delta form” and the “polymorphic form after drying in a fluidized bed drier” value ([2]; 4 hours at 60° C., starting with about 3% heptane (wt/wt)) is reported as “delta”.
In the case of `CC(C)[C@H]1CC[C@H](C(=O)N[C@H](Cc2ccccc2)C(=O)O)CC1` [nitromethane solvates of Form Epsilon, nateglinide], the “form obtained upon drying / heating” value [2, 3] is reported as “Forms H or P”.
For `CC(C)[C@H]1CC[C@H](C(=O)N[C@H](Cc2ccccc2)C(=O)O)CC1` [sigma], the “thermal stability (conversion to another form upon heating)” value [2, 3] was “thermally stable”.
